Numbering of substitutions follows the chain as printed. Values joined by “and” are separate entries in the source; they are usually repeats but may differ in a detail not shown here. Equal entries are not always repeated.
Columns and labels:
R190H ATR [1] = target: T1, R190H ATR (Homo sapiens, UniProt Q96EY8, R190H); assay: EPR spectroscopy of cob(II)alamin with ATR and ATP; assay type: binding; settings: R190H ATR 500 μM trimer, cob(II)alamin 300 μM, 5 mM ATP, 100 K
T1 construct: The expression construct for recombinant human full-length and ΔN18 ATR in a pET-28b vector; His-tag (thrombin-cleavable) (N, cleaved yes); made in house; host or cells: E. coli BL21 (DE3)
T1 sequence (Q96EY8 38-250 R190H limits assumed): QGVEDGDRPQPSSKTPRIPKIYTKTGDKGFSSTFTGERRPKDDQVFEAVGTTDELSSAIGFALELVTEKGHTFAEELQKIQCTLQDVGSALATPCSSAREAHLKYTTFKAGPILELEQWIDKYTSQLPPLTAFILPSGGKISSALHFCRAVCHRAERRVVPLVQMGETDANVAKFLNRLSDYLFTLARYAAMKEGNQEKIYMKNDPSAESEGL
Description: (§1) EPR spectra were recorded on a Bruker EMX 300 equipped with a Bruker 4201 cavity and a Varian liquid nitrogen cryostat. The temperature was controlled by an Oxford Instruments ITC4 temperature controller. The samples were prepared inside an anaerobic chamber (O2 < 0.3 ppm) and contained 300 μM cob(II)alamin, 5 mM ATP and WT ATR (200 μM trimer) or 500 μM (trimer) E193K, R190C or R190H ATR in 50 mM Hepes pH 7.5, 150 mM KCl, 2 mM MgCl2, 2 mM TCEP, and 10% glycerol. The following instrument settings were employed: microwave frequency, 9.27 GHz; power, 2.0 mW; modulation amplitude, 1.0 mT; modulation frequency, 100 kHz; temperature, 100 K. Five scans were acquired for each sample. A buffer spectrum was subtracted from the sample spectrum. The EPR simulations were performed using the EasySpin program ([36]).

R190C ATR [2] = target: T2, R190C ATR (Homo sapiens, UniProt Q96EY8, R190C); assay: EPR spectroscopy of cob(II)alamin with ATR and ATP; assay type: binding; parameters: The expression construct for recombinant human full-length and ΔN18 ATR in a pET-28b vector; His-tag (thrombin-cleavable) (N, cleaved yes); made in house; host or cells: E. coli BL21 (DE3); settings: R190C ATR 500 μM trimer, cob(II)alamin 300 μM, 5 mM ATP, 100 K
T2 sequence (Q96EY8 38-250 R190C limits assumed): T1 sequence (Q96EY8 38-250 R190H limits assumed) with H153C
Description: as §1

E193K ATR [3] = target: T3, E193K ATR (Homo sapiens, UniProt Q96EY8, E193K); assay: EPR spectroscopy of cob(II)alamin with ATR and ATP; assay type: binding; parameters: WT and the R190C variants of ΔN18-ATR and full-length E193K ATR were purified; His-tag (thrombin-cleavable) (N, cleaved yes); made in house; host or cells: E. coli BL21 (DE3); settings: E193K ATR 500 μM trimer, cob(II)alamin 300 μM, 5 mM ATP, 100 K
T3 sequence (Q96EY8 38-250 E193K limits assumed): T1 sequence (Q96EY8 38-250 R190H limits assumed) with H153R, E156K
Description: as §1

WT ATR = target: T4, WT ATR (Homo sapiens, UniProt Q96EY8); assay: Cob(II)alamin binding to ATR, UV-visible titration; parameters: The expression construct for recombinant human full-length and ΔN18 ATR in a pET-28b vector; His-tag (thrombin-cleavable) (N, cleaved yes); made in house; host or cells: E. coli BL21 (DE3); settings: 1 mM ATP, anaerobic, buffer A
T4 sequence (Q96EY8 38-250 limits assumed): T1 sequence (Q96EY8 38-250 R190H limits assumed) with H153R
Description: (§2) Cob(II)alamin binding to ATR was determined by the titrations performed in the anaerobic chamber (<0.2 ppm O2 levels). The increasing concentrations of WT or mutant ATR were added to 30 μM cob(II)alamin and 1 mM ATP in buffer A. The concentration of bound cob(II)alamin was determined using Δε474nm = 5.1 cm^−1 mM^−1. The change in absorbance at 464 nm, corresponding to the base-off ATR-bound cob(II)alamin was plotted against ATR concentration, and the data were analyzed using Equation 1, as described above.

R190C ATR [4] = target: T2, R190C ATR; assay: Cob(II)alamin binding to ATR, UV-visible titration; parameters: The expression construct for recombinant human full-length and ΔN18 ATR in a pET-28b vector; His-tag (thrombin-cleavable) (N, cleaved yes); made in house; host or cells: E. coli BL21 (DE3); settings: 1 mM ATP, anaerobic, buffer A
Description: as §2

R190H ATR [5] = target: T1, R190H ATR; assay: Cob(II)alamin binding to ATR, UV-visible titration; settings: 1 mM ATP, anaerobic, buffer A
Description: as §2

E193K ATR [6] = target: T3, E193K ATR; assay: Cob(II)alamin binding, separation of unbound ligand with 10 kDa cut-off filter; parameters: WT and the R190C variants of ΔN18-ATR and full-length E193K ATR were purified; His-tag (thrombin-cleavable) (N, cleaved yes); made in house; host or cells: E. coli BL21 (DE3)
Description: Although we were unable to determine the KM for cob(II)alamin because of technical limitations of the steady-state assay, the KD for this substrate was determined. In the presence of ATP, cob(II)alamin binds to ATR in a four-coordinate base-off conformation ([17]), which is signaled by a blue shift in the absorption maximum from 474 to 464 nm and an increase in absorption intensity (Fig. 2C). […] In contrast, spectral changes in cob(II)alamin were not observed with E193K ATR (Fig. 2D), indicating either greatly weakened affinity or the presence of bound five-coordinate cob(II)alamin. […] Although some cob(II)alamin (18 μM) was present in the filtrate, the remainder was bound to ATR (Fig. 2D).

C/C1=C2/[N-][C@H]([C@H](CC(N)=O)[C@@]2(C)CCC(=O)NC[C@@H](C)OP(=O)([O-])O[C@H]2[C@@H](O)[C@@H](n3cnc4cc(C)c(C)cc43)O[C@@H]2CO)[C@]2(C)N=C(/C(C)=C3N=C(/C=C4N=C1[C@@H](CCC(N)=O)C\4(C)C)[C@@H](CCC(N)=O)[C@]\3(C)CC(N)=O)[C@@H](CCC(N)=O)[C@]2(C)CC(N)=O.[Co+2] [cob(II)alamin]
four-coordinate base-off cob(II)alamin, share of EPR spectrum (R190H ATR [1]): 75% | unbound five-coordinate base-on cob(II)alamin, share of EPR spectrum (R190H ATR [1]): 25% | four-coordinate base-off cob(II)alamin, share of EPR spectrum (R190C ATR [2]): 75% | unbound five-coordinate base-on cob(II)alamin, share of EPR spectrum (R190C ATR [2]): 25% | five-coordinate base-off cob(II)alamin, share of EPR spectrum (E193K ATR [3]): 76% and ~80% | free base-on cob(II)alamin, share of EPR spectrum (E193K ATR [3]): 24% and 20% | Kd (WT ATR): 0.08 ± 0.01 µM | Kd (R190C ATR [4]): 46 ± 10 µM | Kd (R190H ATR [5]): 38.5 ± 16.5 µM | cob(II)alamin in the filtrate (unbound) (E193K ATR [6]; E193K ATR 1.5 mM): 18% | cob(II)alamin present in the filtrate (unbound) (E193K ATR [6]; cob(II)alamin 100 μM, E193K ATR 500 μM trimer, ATP 2 mM): 18 µM

— article PMC8633584, “Patient mutations in human ATP:cob(I)alamin adenosyltransferase differentially affect its catalytic versus chaperone functions” (The Journal of Biological Chemistry, 2021)
